Where “and” joins values, the source holds several entries; their conditions need not be identical. Equal entries are not always repeated. Inconclusive results and toxic doses are left out.
Test system: BDF1 mice, P388 leukemia ip, median survival T/C
Assay: NCI In Vivo Anticancer Drug Screen. Data for tumor model P388 Leukemia (intraperitoneal) in B6D2F1 (BDF1) mice
Details: endpoint: median survival time, higher = longer survival
Procedure, shortened: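 In tumour-bearing mice, survival after compound treatment is set against the vehicle group and given as a quotient.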

[1] = dose: 100.0 mg/kg/injection, schedule: Q04DX003 (ip), vehicle: Klucel (hydroxypropylcellulose) (HPC)
[2] = dose: 200.0 mg/kg/injection, schedule: Q04DX003 (ip), vehicle: Klucel (hydroxypropylcellulose) (HPC)
[3] = dose: 400.0 mg/kg/injection, schedule: Q04DX003 (ip), vehicle: Klucel (hydroxypropylcellulose) (HPC)
[4] = dose: 6.25 mg/kg/injection, schedule: Q01DX009 (ip), vehicle: saline with Tween-80
[5] = dose: 25.0 mg/kg/injection, schedule: Q01DX009 (ip), vehicle: saline with Tween-80
[6] = dose: 50.0 mg/kg/injection, schedule: Q01DX009 (ip), vehicle: saline with Tween-80
[7] = dose: 100.0 mg/kg/injection, schedule: Q01DX009 (ip), vehicle: saline with Tween-80
[8] = dose: 25.0 mg/kg/injection, schedule: Q01DX009 (ip), vehicle: saline
[9] = dose: 50.0 mg/kg/injection, schedule: Q01DX009 (ip), vehicle: saline
[10] = dose: 100.0 mg/kg/injection, schedule: Q01DX009 (ip), vehicle: saline
[11] = dose: 12.5 mg/kg/injection, schedule: Q01DX009 (ip), vehicle: saline with Tween-80
[12] = dose: 100.0 mg/kg/injection, schedule: Q04DX003 (ip), vehicle: saline with Tween-80
[13] = dose: 200.0 mg/kg/injection, schedule: Q04DX003 (ip), vehicle: saline with Tween-80
[14] = dose: 400.0 mg/kg/injection, schedule: Q04DX003 (ip), vehicle: saline with Tween-80
[15] = dose: 12.5 mg/kg/injection, schedule: Q01DX009 (ip), vehicle: saline
[16] = dose: 50.0 mg/kg/injection, schedule: Q04DX003 (ip), vehicle: saline
[17] = dose: 200.0 mg/kg/injection, schedule: Q01DX009 (ip), vehicle: saline
[18] = dose: 400.0 mg/kg/injection, schedule: Q01DX009 (ip), vehicle: saline

SMILES: CC1(C)Oc2nc(N)nc(N)c2C1c1ccc(Cl)cc1 (stereo not given)
- T/C [1]: 104 % of control
- T/C [2]: 100 % of control
- T/C [3]: 95 % of control

SMILES: CN(c1ccccc1)c1c2c(oc(=O)c1Cl)-c1ccccc1SC2
- T/C (dose: 1.56 mg/kg/injection, schedule: Q01DX009 (ip), vehicle: saline with Tween-80): 101 % of control
- T/C (dose: 3.13 mg/kg/injection, schedule: Q01DX009 (ip), vehicle: saline with Tween-80): 97 % of control
- T/C [4]: 91 % of control

SMILES: OC(COc1cccc(C(F)(F)F)c1)CN1CCN(c2ccc(F)cc2)CC1 (stereo not given)
- T/C [5]: 96 % of control
- T/C [6]: 96 % of control
- T/C [7]: 118 % of control

SMILES: N=C(N)N.O=S(=O)(O)[O][Al]1[O]S(=O)(=O)[O]1
- T/C [8]: 87 % of control
- T/C [9]: 100 % of control
- T/C [10]: 95 % of control

SMILES: C(=N\N(c1ccccc1)c1ccccc1)/c1ccc(/C=N/N(c2ccccc2)c2ccccc2)cc1
- T/C [1]: 100 % of control
- T/C [2]: 100 % of control
- T/C [3]: 95 % of control

SMILES: Cc1ccc(S(=O)(=O)/C=C(/I)c2ccccc2)cc1
- T/C [4]: 124 % of control
- T/C [11]: 106 % of control
- T/C [5]: 106 % of control
- T/C [6]: 92 % of control and 109 % of control
- T/C [7]: 109 % of control
- T/C [12]: 114 % of control
- T/C (dose: 200.0 mg/kg/injection, schedule: Q01DX009 (ip), vehicle: saline with Tween-80): 106 % of control
- T/C [13]: 106 % of control
- T/C (dose: 400.0 mg/kg/injection, schedule: Q01DX009 (ip), vehicle: saline with Tween-80): 100 % of control
- T/C [14]: 97 % of control

SMILES: CCC1(O)CC2CN(CCc3c([nH]c4ccccc34)C(C(=O)OC)(c3cc4c(cc3OC)N(C)C3C(O)(C(N)=O)C(O)C5(CC)C=CCN6CCC43C65)C2)C1 (stereo not given) (tested in a mixture with another compound)
- T/C (dose: 0.65 mg/kg/injection, schedule: Q04DX003 (ip), vehicle: saline): 188 % of control
- T/C (dose: 0.87 mg/kg/injection, schedule: Q04DX003 (ip), vehicle: saline): 154 % of control
- T/C (dose: 1.08 mg/kg/injection, schedule: Q04DX003 (ip), vehicle: saline): 223 % of control
- T/C (dose: 1.3 mg/kg/injection, schedule: Q04DX003 (ip), vehicle: saline): 187 % of control
- T/C (dose: 1.8 mg/kg/injection, schedule: Q04DX003 (ip), vehicle: saline): 238 % of control
- T/C (dose: 2.0 mg/kg/injection, schedule: Q04DX003 (ip), vehicle: saline): 163 % of control
- T/C (dose: 3.0 mg/kg/injection, schedule: Q04DX003 (ip), vehicle: saline): 101 % of control
- T/C (dose: 500.0 micrograms/kg/injection, schedule: Q04DX003 (ip), vehicle: saline): 175 % of control
- T/C (dose: 648.0 micrograms/kg/injection, schedule: Q04DX003 (ip), vehicle: saline): 203 % of control
- T/C (dose: 1000.0 micrograms/kg/injection, schedule: Q04DX003 (ip), vehicle: saline): 250 % of control
- T/C (dose: 1080.0 micrograms/kg/injection, schedule: Q04DX003 (ip), vehicle: saline): 237 % of control
- T/C (dose: 1800.0 micrograms/kg/injection, schedule: Q04DX003 (ip), vehicle: saline): 237 % of control
- T/C (dose: 2000.0 micrograms/kg/injection, schedule: Q04DX003 (ip), vehicle: saline): 211 % of control
- T/C (dose: 4000.0 micrograms/kg/injection, schedule: Q04DX003 (ip), vehicle: saline): 96 % of control

SMILES: COc1cccc(/C=C/[N+](=O)[O-])c1OC
- T/C (dose: 6.25 mg/kg/injection, schedule: Q01DX009 (ip), vehicle: Klucel (hydroxypropylcellulose) (HPC)): 113 % of control
- T/C (dose: 6.25 mg/kg/injection, schedule: Q01DX009 (ip), vehicle: saline): 100 % of control
- T/C [15]: 106 % of control
- T/C (dose: 12.5 mg/kg/injection, schedule: Q01DX010 (ip), vehicle: carboxymethylcellulose (CMC)): 115 % of control
- T/C [8]: 104 % of control
- T/C (dose: 35.0 mg/kg/injection, schedule: Q01DX009 (ip), vehicle: Klucel (hydroxypropylcellulose) (HPC)): 117 % of control
- T/C [9]: 113 % of control
- T/C [16]: 102 % of control
- T/C [10]: 104 % of control
- T/C (dose: 100.0 mg/kg/injection, schedule: Q04DX003 (ip), vehicle: saline): 98 % of control
- T/C [17]: 91 % of control
- T/C (dose: 200.0 mg/kg/injection, schedule: Q04DX003 (ip), vehicle: saline): 95 % of control
- T/C [18]: 91 % of control
- T/C (dose: 400.0 mg/kg/injection, schedule: Q04DX003 (ip), vehicle: saline): 106 % of control

SMILES: CCOC(=O)C(Br)c1cccc(OC)c1 (stereo not given)
- T/C [12]: 100 % of control
- T/C [13]: 100 % of control
- T/C [14]: 110 % of control

SMILES: CC(C)C1=CC23CCC4C(C)(C(N)=O)CCCC4(C)C2CC1C1C(=O)OC(=O)C13 (stereo not given)
- T/C (dose: 12.5 mg/kg/injection, schedule: Q01DX001 (ip), vehicle: saline with Tween-80): 100 % of control
- T/C (dose: 25.0 mg/kg/injection, schedule: Q01DX001 (ip), vehicle: saline with Tween-80): 108 % of control
- T/C (dose: 50.0 mg/kg/injection, schedule: Q01DX001 (ip), vehicle: saline with Tween-80): 104 % of control

SMILES: NCC1OC(OC2C(N)CC(N)C(O)C2OC2OC(CO)C(O)C2O)C(N)C(O)C1O (stereo not given)
- T/C [15]: 104 % of control
- T/C [8]: 111 % of control
- T/C [9]: 111 % of control
- T/C [10]: 110 % of control and 114 % of control and 120 % of control
- T/C (dose: 150.0 mg/kg/injection, schedule: Q01DX009 (ip), vehicle: saline): 105 % of control
- T/C [17]: 119 % of control
- T/C (dose: 225.0 mg/kg/injection, schedule: Q01DX009 (ip), vehicle: saline): 99 % of control
- T/C [18]: 99 % of control

SMILES: O=C(Cn1ccc(=O)[nH]c1=O)c1ccc([N+](=O)[O-])o1
- T/C (dose: 25.0 mg/kg/injection, schedule: Q04DX003 (ip), vehicle: saline): 109 % of control
- T/C [16]: 100 % of control

SMILES: CC(N)C(=O)NC(C)C(=O)O (stereo not given)
- T/C (dose: 100.0 mg/kg/injection, schedule: Q01DX001 (ip), vehicle: saline): 98 % of control
- T/C (dose: 200.0 mg/kg/injection, schedule: Q01DX001 (ip), vehicle: saline): 100 % of control
- T/C (dose: 400.0 mg/kg/injection, schedule: Q01DX001 (ip), vehicle: saline): 99 % of control

SMILES: CCN=C=NCCCN(C)C
- T/C (dose: 7.5 mg/kg/injection, schedule: Q01DX009 (ip), vehicle: saline): 105 % of control
- T/C (dose: 15.0 mg/kg/injection, schedule: Q01DX009 (ip), vehicle: saline): 105 % of control
- T/C (dose: 30.0 mg/kg/injection, schedule: Q01DX009 (ip), vehicle: saline): 94 % of control
- T/C (dose: 60.0 mg/kg/injection, schedule: Q01DX009 (ip), vehicle: saline): 100 % of control

SMILES: NC(N)=NC(N)=Nc1ccc(-c2ccc(N=C(N)N=C(N)N)cc2)cc1
- T/C [11]: 151 % of control
- T/C [5]: 89 % of control

SMILES: c1cnc2c3c(ccc2c1)CN(C1CCCCC1)CO3
- T/C (dose: 50.0 mg/kg/injection, schedule: Q04DX003 (ip), vehicle: saline with Tween-80): 104 % of control
- T/C [12]: 104 % of control
- T/C [13]: 90 % of control

SMILES: O=C1C=CC(=O)N1CCc1ccccc1
- T/C (dose: 5.0 mg/kg/injection, schedule: Q01DX009 (ip), vehicle: saline with Tween-80): 100 % of control
- T/C (dose: 10.0 mg/kg/injection, schedule: Q01DX009 (ip), vehicle: saline with Tween-80): 92 % of control
- T/C (dose: 10.0 mg/kg/injection, schedule: Q04DX003 (ip), vehicle: saline with Tween-80): 108 % of control
- T/C (dose: 20.0 mg/kg/injection, schedule: Q01DX009 (ip), vehicle: saline with Tween-80): 92 % of control
- T/C (dose: 20.0 mg/kg/injection, schedule: Q04DX003 (ip), vehicle: saline with Tween-80): 108 % of control

SMILES: CC(=O)Oc1cccnc1C(C#N)C#N
- T/C (dose: 50.0 mg/kg/injection, schedule: Q01DX005 (ip), vehicle: saline with Tween-80): 92 % of control

SMILES: C1=CC2(OCCO2)C2CC=CC3(OCCO3)C2C1 (stereo not given)
- T/C (dose: 12.5 mg/kg/injection, schedule: Q01DX009 (ip), vehicle: Klucel (hydroxypropylcellulose) (HPC)): 114 % of control
- T/C (dose: 25.0 mg/kg/injection, schedule: Q01DX009 (ip), vehicle: Klucel (hydroxypropylcellulose) (HPC)): 110 % of control and 123 % of control
- T/C (dose: 200.0 mg/kg/injection, schedule: Q01DX009 (ip), vehicle: Klucel (hydroxypropylcellulose) (HPC)): 117 % of control

Reference: PubChem BioAssay AID328 (DTP/NCI, 2004)
